Source: patent publication US20100048462A1, “TRUNCATED PTH PEPTIDES WITH A CYCLIC CONFORMATION” (Zealand Pharma A/S, priority 2006, published 2010)
Bridge positions count the residues as written; N and C are the ends. Square brackets hold non-standard residues; d marks the D form. Peptide text beside a SMILES is read from it. I, II: the chains in the order shown. hArg = N=C(N)NCCCC[C@H](N)C(=O)O; Ac5c = NC1(C(=O)O)CCCC1; Aib = CC(C)(N)C(=O)O

Biological target: T1, PTH receptor 1 (Mus musculus, UniProt P41593)
T1 construct: host or cells: MC3T3-E1 subclone 4
T1 sequence (P41593 27-591): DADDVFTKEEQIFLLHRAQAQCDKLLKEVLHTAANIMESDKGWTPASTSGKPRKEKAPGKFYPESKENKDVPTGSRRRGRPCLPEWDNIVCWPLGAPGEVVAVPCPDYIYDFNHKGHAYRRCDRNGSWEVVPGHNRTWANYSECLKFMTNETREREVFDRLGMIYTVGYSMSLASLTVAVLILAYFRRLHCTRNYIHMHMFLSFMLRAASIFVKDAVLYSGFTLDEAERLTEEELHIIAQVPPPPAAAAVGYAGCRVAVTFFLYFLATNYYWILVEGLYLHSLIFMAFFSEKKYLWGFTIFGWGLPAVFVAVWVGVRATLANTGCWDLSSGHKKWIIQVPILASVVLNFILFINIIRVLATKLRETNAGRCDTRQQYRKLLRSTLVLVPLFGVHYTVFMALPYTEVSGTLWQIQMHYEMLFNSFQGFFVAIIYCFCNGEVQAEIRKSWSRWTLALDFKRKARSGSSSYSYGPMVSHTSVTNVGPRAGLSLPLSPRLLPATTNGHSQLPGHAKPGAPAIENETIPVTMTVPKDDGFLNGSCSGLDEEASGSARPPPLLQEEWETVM
Experiment: MC3T3-E1 cAMP efficacy assay
Type: cell-based, murine
Conditions: MC3T3-E1 cells
Protocol: MC3T3-E1 cells were seeded at 10,000 cells/well in 96-microtiter plates and grown overnight before the efficacy assays. On the day of analysis the growth medium was carefully removed by suction. Cells were washed once with 200 μl TB/0.1% […]. The buffer was replaced with 100 μl reaction mixture (±test peptide, +100 μM IBMX) and incubated at 37° C. for 13 min. The reaction was stopped by addition of 25 μl of ice-cold 0.5 M HCl. Cells were in the following incubated on ice for 60 min. 75 μl acetate-buffer were added to each well in a 96-well cAMP FlashPlate. […] FlashPlates were incubated overnight at 4° C., emptied by suction and counted in a TopCounter.
Determinations were performed in triplicates at all doses. Standards were included as single determinations, duplicates or triplicates in each experiment, preferentially on each plate.
Efficacy was evaluated in the concentration range from […].
Concentration-dependent cAMP responses were imported into GraphPad Prism vers. 4, transformed and plotted. Curves were fitted with a function for sigmoidal dose response curve non-linear fit Y=Bottom+(Top-Bottom)/(1+10̂((LogEC50-X))) where X is the logarithm of concentration and Y is the response. Y starts at Bottom and goes to Top with a sigmoid shape. pEC50 and the maximally inducible concentration of cAMP were evaluated. Overall statistical differences were analyzed using one-way ANOVA. Post-hoc comparisons were made by the use of Fisher's Least Significance Test. Results were considered significant, when p was lower than 0.05.

## CC[C@H](C)[C@H](NC(=O)[C@H](CCC(=O)O)NC(=O)C(C)(C)NC(=O)[C@@H](NC(=O)C1(N)CCCC1)C(C)C)C(=O)N[C@@H](CCC(N)=O)C(=O)N[C@@H](CC(C)C)C(=O)N[C@@H](CCSC)C(=O)N[C@@H](Cc1c[nH]cn1)C(=O)N[C@@H](CCC(N)=O)C(=O)N[C@@H](CCCCNC(=N)N)C(=O)N[C@@H](C)C(=O)N[C@H]1CCCCNC(=O)C[C@@H](C(N)=O)NC(=O)[C@H](CC(C)C)NC(=O)[C@H](Cc2c[nH]c3ccccc23)NC(=O)[C@@H](NC(=O)[C@H](C)NC(=O)[C@H](CCCCNC(=N)N)NC(=O)[C@H](CCC(N)=O)NC(=O)[C@H](Cc2c[nH]cn2)NC(=O)[C@H](CCSC)NC(=O)[C@H](CC(C)C)NC(=O)[C@H](CCC(N)=O)NC(=O)[C@@H](NC(=O)[C@H](CCC(=O)O)NC(=O)C(C)(C)NC(=O)[C@@H](NC(=O)C2(N)CCCC2)C(C)C)[C@@H](C)CC)CCCCNC(=O)C[C@@H](C(N)=O)NC(=O)[C@H](CC(C)C)NC(=O)[C@H](Cc2c[nH]c3ccccc23)NC1=O [SEQ ID NO: 33, (H-Ac5c-Val-Aib-Glu-Ile-Gln-Leu-Met-His-Gln-Har-Ala-Lys( )-Trp-Leu-Asp( )-NH2)2] (I: H-[Ac5c]V[Aib]EIQLMHQ[hArg]AKWLD-NH2 / II: H-[Ac5c]V[Aib]EIQLMHQ[hArg]AKWLD-NH2; amide I:13-II:16, I:16-II:13 (inferred))
cAMP
  agonist strength relative to SEQ ID NO: 30: eight-fold stronger agonist
Maximally inducible cAMP
  Emax ± SEM [pmol/well]: 5.0 ± 0.3 pmol/well
